According to US5668165A, “Small molecule inhibition of RNA/ligand binding” (Scriptgen Pharmaceuticals, Inc., priority 1995, dated 1997):

Assays:
[1] = target: T1, binding of Oct-1 to the HSV ICPO octamer binding site (Homo sapiens, UniProt P14859); assay: Oct-1 DNA binding, gel mobility shift assay; conditions: 100 μM
T1 sequence (P14859 1-743): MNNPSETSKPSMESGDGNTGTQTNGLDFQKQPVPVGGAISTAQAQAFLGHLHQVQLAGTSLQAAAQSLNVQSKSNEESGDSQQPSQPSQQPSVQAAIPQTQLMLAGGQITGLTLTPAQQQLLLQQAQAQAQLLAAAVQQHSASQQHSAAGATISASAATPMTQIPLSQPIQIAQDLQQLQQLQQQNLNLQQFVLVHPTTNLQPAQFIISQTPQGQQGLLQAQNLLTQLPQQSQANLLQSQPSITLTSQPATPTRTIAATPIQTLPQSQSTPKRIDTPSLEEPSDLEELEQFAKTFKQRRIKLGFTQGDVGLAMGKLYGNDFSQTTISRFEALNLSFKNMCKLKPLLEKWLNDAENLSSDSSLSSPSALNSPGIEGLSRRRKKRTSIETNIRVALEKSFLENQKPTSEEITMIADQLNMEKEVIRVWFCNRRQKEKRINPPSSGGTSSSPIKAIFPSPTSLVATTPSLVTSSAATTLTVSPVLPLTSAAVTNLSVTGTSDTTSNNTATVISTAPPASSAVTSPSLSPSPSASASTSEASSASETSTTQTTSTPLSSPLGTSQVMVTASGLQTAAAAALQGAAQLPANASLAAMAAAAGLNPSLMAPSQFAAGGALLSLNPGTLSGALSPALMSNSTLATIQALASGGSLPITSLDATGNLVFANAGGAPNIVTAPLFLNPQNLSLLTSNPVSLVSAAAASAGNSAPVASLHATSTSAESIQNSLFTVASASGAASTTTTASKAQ
Description: In these studies, the DNA binding activities of two eukaryotic transcription factors, Oct-1 and ATF-2, were analyzed using a gel mobility shift assay. Purified Oct-1 was inculcated in the absence or presence of 100 μM neomycin B with a ^32 P-labelled 70-nt DNA probe containing an HSV ICPO octamer binding site (Stern and Her, Genes and Development, 5:2555-2566 (1991)). Additionally, the effect of 100 μM neomycin B on the binding of ATF-2 to a 35-nt DNA probe homologous to nucleotides -251 to -232 of the HTLV-1 LTR was analyzed.

[2] = tested on: binding of Rev to the RRE (67-nt RNA probe containing a high affinity Rev-binding site); parameters: species or system HIV; conditions: 1 μM drug
HIV = HIV production (p24) in chronically infected U1 cells; format: cell-based; conditions: Human immunodeficiency virus 1, read-out: inhibition of viral production (p24 in the culture medium)
Description: The experiment described below was performed to test whether or not neomycin B inhibits production of HIV in an infected cell. A chronically HIV-infected cell line, U1, was used. This cell line has been previously used as a model to study Rev-dependent activation of viral production. (Pomerantz, et al., Cell, 61:1271-1276 (1990); Michael, et al., J. Virol., 55:1291-1303, (1991)).
Viral production was assessed after exposure of cells to increasing concentrations of neomycin B, using a standard assay that quantifies the amount of an HIV structure protein, p24, in the culture medium.

Rev function = Rev function in vivo: cotransfection assay with CAT reporter plasmid pCM128; format: cell-based, HIV; conditions: cotransfection of pCM128 with a Rev expression plasmid
Description: The experiments described below were performed to determine whether or not the inhibitory 2-DOS antibiotics antagonize Rev function in vivo. Rev function was measured in a cotransfection assay using the chloramphenicol acetytransferase (CAT) reporter plasmid pCM128, which has a single intron containing both the RRE and the bacterial CAT coding sequence (Hope et al., Proc. Natl. Acad. Sci. USA, 87:7787-7791 (1990)). Normally, the intron is efficiently excised by splicing; therefore, cells transfected with pCM128 express only trace amounts of CAT enzyme activity. Cotransfection with a Rev expression plasmid permits unspliced transcripts to enter the cytoplasm, and thus CAT expression is increased.

Group I introns = conditions: von Ahsen et al. 1992; cited from earlier work
[3] = tested on: GST-Sex lethal binding to tra RNA; assay: Sex lethal binding to tra RNA; parameters: species or system Drosophila; conditions: 100 μM
Description: To determine whether inhibition by 2-DOS aminoglycosides was specific for Rev-RRE interaction, the effect of inhibitory antibiotics on several unrelated sequence-specific RNA- and DNA-binding proteins was examined. Initially, two well-characterized proteins involved in pre-mRNA splicing were examined: the essential splicing factor USAF^65 and the Drosophila splicing regulator Sex lethal.
In these binding experiments, Sex lethal protein or the 65 kD subunit of U2AF^65, each purified as fusion protein with gluthatione-S-transferase (GST), were incubated with a ^32 P-labelled RNA containing the well-characterized polypyrimidine tract-3' splice site found in the Drosophila tra gene. The incubations were performed in the absence or presence of 100 μM neomycin B or 100 μM tobramycin.

[4] = tested on: β-galactosidase reporter gene; assay: Cotransfected β-galactosidase reporter gene expression; format: cell-based; conditions: concentrations that inhibited Rev function
Description: First, at all concentrations of antibiotics tested, cellular viability and growth were normal, and total cellular protein synthesis (as monitored by incorporation of [^35 S]methionine into protein) was not inhibited. […] Thus, inhibition of Rev function is not due to interference with CAT gene expression at the transcriptional or posttranscriptional level. The failure to inhibit Tat is particularly relevant, because transcription activation involves an RNA-protein interaction between Tat and trans-acting responsive sequences.

NC[C@@H]1O[C@H](O[C@H]2[C@@H](O)[C@H](O[C@@H]3[C@@H](O)[C@H](N)C[C@H](N)[C@H]3O[C@H]3O[C@H](CN)[C@@H](O)[C@H](O)[C@H]3N)O[C@@H]2CO)[C@H](N)[C@@H](O)[C@@H]1O [neomycin B]
binding of Oct-1 to the HSV ICPO octamer binding site [1]: unaffected | binding of Rev to a 33-nt RNA probe that contained a high affinity binding site [2]: inhibited | binding of Rev to a 234-nt RRE that supports a Rev response in vivo [2]: inhibited | inhibition at 2500 µM (HIV): ~85% | Rev function (CAT expression) (Rev function): dose-dependent inhibition | self-splicing of Group I introns in vitro (Group I introns): effectively inhibit | binding of GST-Sex lethal to the tra RNA [3]: unaffected | expression of a cotransfected β-galactosidase reporter gene [4]: did not inhibit
